Source: the kinase profiling compilation of Christmann-Franck et al. (2016)
“And” between values parts separate entries of the source, which are not always exact repeats. Identical values can stand only once.

How the values were obtained:
Assay in all cases: Caliper, Mobility shift assay off-chip
[1] = biological target: AURKA (human) (UniProt O14965)
[2] = biological target: CAMK1D (human) (UniProt Q8IU85)
[3] = biological target: CDK5 (human) (UniProt Q00535)
[4] = biological target: CLK1 (human) (UniProt P49759)
[5] = biological target: CSNK1A1 (human) (UniProt P48729)
[6] = biological target: DDR1 (human) (UniProt Q08345)
[7] = biological target: EPHA2 (human) (UniProt P29317)
[8] = biological target: INSR (human) (UniProt P06213)
[9] = biological target: MARK1 (human) (UniProt Q9P0L2)
Chain of MARK1 (human) (Q9P0L2 whole entry, looked up): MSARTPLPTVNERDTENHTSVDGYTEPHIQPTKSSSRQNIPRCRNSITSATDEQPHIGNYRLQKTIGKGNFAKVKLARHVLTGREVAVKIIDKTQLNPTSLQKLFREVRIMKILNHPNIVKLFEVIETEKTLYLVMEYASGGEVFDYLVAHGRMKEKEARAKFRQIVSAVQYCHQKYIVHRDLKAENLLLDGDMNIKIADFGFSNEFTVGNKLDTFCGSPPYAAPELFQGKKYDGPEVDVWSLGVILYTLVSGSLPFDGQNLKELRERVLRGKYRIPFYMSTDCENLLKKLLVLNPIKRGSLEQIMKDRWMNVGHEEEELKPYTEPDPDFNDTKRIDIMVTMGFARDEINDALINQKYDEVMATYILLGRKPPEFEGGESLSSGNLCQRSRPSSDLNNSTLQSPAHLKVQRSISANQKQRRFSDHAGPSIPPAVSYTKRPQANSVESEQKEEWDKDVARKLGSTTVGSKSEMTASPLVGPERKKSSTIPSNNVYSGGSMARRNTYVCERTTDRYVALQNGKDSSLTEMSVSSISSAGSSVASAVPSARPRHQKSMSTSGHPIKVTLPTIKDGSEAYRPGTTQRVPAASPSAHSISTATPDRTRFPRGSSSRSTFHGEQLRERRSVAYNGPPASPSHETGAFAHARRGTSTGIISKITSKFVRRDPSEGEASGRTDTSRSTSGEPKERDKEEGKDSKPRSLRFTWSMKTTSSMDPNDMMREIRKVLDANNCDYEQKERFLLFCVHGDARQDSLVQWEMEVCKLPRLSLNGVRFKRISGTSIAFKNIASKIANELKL

[10] = biological target: MARK2 (human) (UniProt Q7KZI7)
[11] = biological target: MST1R (human) (UniProt Q04912)
[12] = biological target: NEK6 (human) (UniProt Q9HC98)
[13] = biological target: NTRK3 (human) (UniProt Q16288)
[14] = biological target: NUAK1 (human) (UniProt O60285)
[15] = biological target: PAK4 (human) (UniProt O96013)
[16] = biological target: PASK (human) (UniProt Q96RG2)
[17] = biological target: PDGFRB (human) (UniProt P09619)
[18] = biological target: PLK1 (human) (UniProt P53350)
Chain of PLK1 (human) (P53350 whole entry, looked up): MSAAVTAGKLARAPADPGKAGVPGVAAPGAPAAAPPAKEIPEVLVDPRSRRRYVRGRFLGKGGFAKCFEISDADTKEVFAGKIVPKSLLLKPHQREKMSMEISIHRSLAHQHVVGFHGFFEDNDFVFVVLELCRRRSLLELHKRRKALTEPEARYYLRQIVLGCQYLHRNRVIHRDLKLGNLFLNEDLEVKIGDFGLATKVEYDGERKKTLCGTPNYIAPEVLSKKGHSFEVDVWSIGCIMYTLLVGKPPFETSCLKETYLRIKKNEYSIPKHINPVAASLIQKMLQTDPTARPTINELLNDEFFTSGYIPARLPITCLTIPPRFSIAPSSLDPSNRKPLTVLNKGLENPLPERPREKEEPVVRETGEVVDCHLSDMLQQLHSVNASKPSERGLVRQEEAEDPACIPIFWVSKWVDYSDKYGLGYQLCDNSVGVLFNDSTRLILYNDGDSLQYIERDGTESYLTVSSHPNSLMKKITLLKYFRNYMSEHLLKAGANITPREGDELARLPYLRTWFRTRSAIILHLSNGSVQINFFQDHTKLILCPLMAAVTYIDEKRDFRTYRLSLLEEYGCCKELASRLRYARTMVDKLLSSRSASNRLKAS

[19] = biological target: PRKCB1 (human) (UniProt P05771)
[20] = biological target: PRKCD (human) (UniProt Q05655)
[21] = biological target: PRKCH (human) (UniProt P24723)
[22] = biological target: PRKD2 (human) (UniProt Q9BZL6)
[23] = biological target: PRKD3 (human) (UniProt O94806)
[24] = biological target: PRKG2 (human) (UniProt Q13237)
Chain of PRKG2 (human) (Q13237 whole entry, looked up): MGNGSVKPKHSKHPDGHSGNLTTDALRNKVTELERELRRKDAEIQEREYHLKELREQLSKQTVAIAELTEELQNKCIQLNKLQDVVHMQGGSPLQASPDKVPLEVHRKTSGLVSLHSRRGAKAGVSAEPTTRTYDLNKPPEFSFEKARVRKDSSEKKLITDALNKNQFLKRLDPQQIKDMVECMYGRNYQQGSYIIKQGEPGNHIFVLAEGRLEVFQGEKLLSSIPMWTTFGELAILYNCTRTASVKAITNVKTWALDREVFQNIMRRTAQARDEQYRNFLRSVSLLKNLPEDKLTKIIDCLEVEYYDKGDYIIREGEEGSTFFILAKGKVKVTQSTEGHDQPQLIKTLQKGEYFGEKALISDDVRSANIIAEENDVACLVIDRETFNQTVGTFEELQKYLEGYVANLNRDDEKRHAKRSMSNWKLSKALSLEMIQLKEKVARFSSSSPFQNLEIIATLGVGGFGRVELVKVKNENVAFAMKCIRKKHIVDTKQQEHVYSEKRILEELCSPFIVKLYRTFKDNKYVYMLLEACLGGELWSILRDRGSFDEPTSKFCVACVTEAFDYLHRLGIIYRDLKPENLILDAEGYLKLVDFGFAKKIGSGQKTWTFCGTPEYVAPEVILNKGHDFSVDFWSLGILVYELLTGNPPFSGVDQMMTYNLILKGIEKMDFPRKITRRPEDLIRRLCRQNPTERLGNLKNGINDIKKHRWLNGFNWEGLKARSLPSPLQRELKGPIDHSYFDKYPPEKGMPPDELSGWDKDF

[25] = biological target: ROCK1 (human) (UniProt Q13464)
[26] = biological target: SGK2 (human) (UniProt Q9HBY8)
Chain of SGK2 (human) (Q9HBY8 whole entry, looked up): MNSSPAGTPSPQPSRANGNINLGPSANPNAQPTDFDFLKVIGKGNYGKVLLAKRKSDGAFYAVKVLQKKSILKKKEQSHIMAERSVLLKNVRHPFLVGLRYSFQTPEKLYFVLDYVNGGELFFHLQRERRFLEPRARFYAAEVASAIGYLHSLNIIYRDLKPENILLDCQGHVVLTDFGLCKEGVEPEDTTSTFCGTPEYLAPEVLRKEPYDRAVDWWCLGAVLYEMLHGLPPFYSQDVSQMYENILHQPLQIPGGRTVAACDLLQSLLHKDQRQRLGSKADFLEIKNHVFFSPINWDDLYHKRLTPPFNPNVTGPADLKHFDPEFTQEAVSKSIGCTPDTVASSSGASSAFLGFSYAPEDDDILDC

[27] = biological target: SPHK1 (human) (UniProt Q9NYA1)
[28] = biological target: SRC (human) (UniProt P12931)
[29] = biological target: SRPK3 (human) (UniProt Q9UPE1)
Chain of SRPK3 (human) (Q9UPE1 whole entry, looked up): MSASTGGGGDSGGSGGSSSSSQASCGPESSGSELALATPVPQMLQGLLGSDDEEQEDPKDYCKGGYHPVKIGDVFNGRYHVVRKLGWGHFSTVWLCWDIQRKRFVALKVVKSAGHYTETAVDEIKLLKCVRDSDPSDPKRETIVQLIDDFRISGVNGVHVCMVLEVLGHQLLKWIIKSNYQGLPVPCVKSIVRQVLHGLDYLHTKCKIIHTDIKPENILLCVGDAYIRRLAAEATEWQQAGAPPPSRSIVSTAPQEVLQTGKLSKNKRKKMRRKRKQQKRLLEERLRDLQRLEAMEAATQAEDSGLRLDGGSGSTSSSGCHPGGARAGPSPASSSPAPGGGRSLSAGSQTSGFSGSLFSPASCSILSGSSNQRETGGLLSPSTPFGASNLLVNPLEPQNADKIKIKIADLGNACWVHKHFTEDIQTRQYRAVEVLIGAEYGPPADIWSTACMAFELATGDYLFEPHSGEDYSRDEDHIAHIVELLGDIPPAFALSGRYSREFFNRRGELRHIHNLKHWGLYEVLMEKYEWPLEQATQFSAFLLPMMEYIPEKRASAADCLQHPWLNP

[30] = biological target: STK3 (human) (UniProt Q13188)
Chain of STK3 (human) (Q13188 whole entry, looked up): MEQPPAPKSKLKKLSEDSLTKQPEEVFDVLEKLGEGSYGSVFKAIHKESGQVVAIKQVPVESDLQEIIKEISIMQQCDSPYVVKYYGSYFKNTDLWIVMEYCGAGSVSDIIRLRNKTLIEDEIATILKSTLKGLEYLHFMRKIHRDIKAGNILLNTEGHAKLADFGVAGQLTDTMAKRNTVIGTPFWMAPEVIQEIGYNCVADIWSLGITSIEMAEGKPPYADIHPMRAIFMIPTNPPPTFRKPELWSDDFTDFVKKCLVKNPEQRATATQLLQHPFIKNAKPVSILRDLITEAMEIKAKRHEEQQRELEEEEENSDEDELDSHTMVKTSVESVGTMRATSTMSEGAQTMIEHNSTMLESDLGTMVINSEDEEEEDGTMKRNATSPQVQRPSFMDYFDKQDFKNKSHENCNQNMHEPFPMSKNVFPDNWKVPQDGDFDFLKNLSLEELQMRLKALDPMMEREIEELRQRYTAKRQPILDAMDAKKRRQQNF

[31] = biological target: TAB1 (human) (UniProt Q15750)
[32] = biological target: TEC (human) (UniProt P42680)
Chain of TEC (human) (P42680 whole entry, looked up): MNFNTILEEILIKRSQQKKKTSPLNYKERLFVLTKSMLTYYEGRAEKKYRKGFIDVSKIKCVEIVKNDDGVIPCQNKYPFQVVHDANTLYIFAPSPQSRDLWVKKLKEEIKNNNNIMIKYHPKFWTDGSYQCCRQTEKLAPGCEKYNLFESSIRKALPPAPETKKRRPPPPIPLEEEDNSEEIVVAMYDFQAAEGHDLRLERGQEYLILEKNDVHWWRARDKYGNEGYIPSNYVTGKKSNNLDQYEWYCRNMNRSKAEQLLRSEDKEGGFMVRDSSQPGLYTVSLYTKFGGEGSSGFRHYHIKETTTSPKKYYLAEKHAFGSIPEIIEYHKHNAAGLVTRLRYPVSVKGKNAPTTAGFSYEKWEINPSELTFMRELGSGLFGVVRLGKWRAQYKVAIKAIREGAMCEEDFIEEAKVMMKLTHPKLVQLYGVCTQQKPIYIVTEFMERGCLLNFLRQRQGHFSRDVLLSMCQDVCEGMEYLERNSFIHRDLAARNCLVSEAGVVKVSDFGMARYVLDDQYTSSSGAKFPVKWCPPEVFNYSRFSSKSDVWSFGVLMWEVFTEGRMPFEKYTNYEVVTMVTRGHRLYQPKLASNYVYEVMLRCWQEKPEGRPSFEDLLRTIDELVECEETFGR

[33] = biological target: TNK1 (human) (UniProt Q13470)
[34] = biological target: ZAP70 (human) (UniProt P43403)
Chain of ZAP70 (human) (P43403 whole entry, looked up): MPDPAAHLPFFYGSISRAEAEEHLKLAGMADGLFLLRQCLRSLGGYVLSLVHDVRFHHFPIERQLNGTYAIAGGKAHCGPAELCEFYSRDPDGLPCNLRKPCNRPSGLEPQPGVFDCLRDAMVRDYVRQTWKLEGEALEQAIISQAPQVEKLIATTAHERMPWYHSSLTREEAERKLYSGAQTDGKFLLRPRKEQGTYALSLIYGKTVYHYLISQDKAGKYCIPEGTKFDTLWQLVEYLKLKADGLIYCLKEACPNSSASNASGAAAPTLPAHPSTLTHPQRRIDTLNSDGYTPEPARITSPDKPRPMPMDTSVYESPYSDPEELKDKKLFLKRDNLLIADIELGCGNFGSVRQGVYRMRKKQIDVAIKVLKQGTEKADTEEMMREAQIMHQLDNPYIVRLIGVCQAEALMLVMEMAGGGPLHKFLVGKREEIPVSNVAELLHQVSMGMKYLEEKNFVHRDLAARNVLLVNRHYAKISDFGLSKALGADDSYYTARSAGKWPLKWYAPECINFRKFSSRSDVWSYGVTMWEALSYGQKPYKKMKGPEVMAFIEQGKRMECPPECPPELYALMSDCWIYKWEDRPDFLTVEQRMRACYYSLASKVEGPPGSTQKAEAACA

SMILES: COc1cc2c(Oc3ccc4[nH]c(C)cc4c3F)ncnc2cc1OCCCN1CCCC1
- inhibition ([1]; compound 0.02 µM): 3.3%
- inhibition ([1]; compound 0.2 µM): 4.9%
- inhibition ([2]; compound 0.02 µM): 0.3%
- inhibition ([2]; compound 0.2 µM): -0.6%
- inhibition ([3]; compound 0.02 µM): 0.8%
- inhibition ([3]; compound 0.2 µM): -4.2%
- inhibition ([4]; compound 0.02 µM): 8.1%
- inhibition ([4]; compound 0.2 µM): -6.1%
- inhibition ([5]; compound 0.02 µM): -5.9%
- inhibition ([5]; compound 0.2 µM): -7.9%
- inhibition ([6]; compound 0.02 µM): 25.7%
- inhibition ([6]; compound 0.2 µM): 95.3%
- inhibition ([7]; compound 0.02 µM): -5.4%
- inhibition ([7]; compound 0.2 µM): -3.5%
- inhibition ([8]; compound 0.02 µM): -0.3%
- inhibition ([8]; compound 0.2 µM): -2.4%
- inhibition ([9]; compound 0.02 µM): -2.2%
- inhibition ([9]; compound 0.2 µM): 2.7%
- inhibition ([10]; compound 0.02 µM): 6.9%
- inhibition ([10]; compound 0.2 µM): 9.2%
- inhibition ([11]; compound 0.02 µM): 4.9%
- inhibition ([11]; compound 0.2 µM): 10.8%
- inhibition ([12]; compound 0.02 µM): -4.2%
- inhibition ([12]; compound 0.2 µM): -3.5%
- inhibition ([13]; compound 0.02 µM): 1.6%
- inhibition ([13]; compound 0.2 µM): 1.8%
- inhibition ([14]; compound 0.02 µM): 8.9%
- inhibition ([14]; compound 0.2 µM): -13.6%
- inhibition ([15]; compound 0.02 µM): 6.5%
- inhibition ([15]; compound 0.2 µM): 0%
- inhibition ([16]; compound 0.02 µM): -4.3%
- inhibition ([16]; compound 0.2 µM): 0.3%
- inhibition ([17]; compound 0.02 µM): 17.9%
- inhibition ([17]; compound 0.2 µM): 61.8%
- inhibition ([18]; compound 0.02 µM): -0.1%
- inhibition ([18]; compound 0.2 µM): -2%
- inhibition ([19]; compound 0.02 µM): 5.1% and 8.3%
- inhibition ([19]; compound 0.2 µM): 7.3% and 7.5%
- inhibition ([20]; compound 0.02 µM): 11.1%
- inhibition ([20]; compound 0.2 µM): -2.2%
- inhibition ([21]; compound 0.02 µM): 6%
- inhibition ([21]; compound 0.2 µM): 4.7%
- inhibition ([22]; compound 0.02 µM): -0.3%
- inhibition ([22]; compound 0.2 µM): -1.5%
- inhibition ([23]; compound 0.02 µM): -1%
- inhibition ([23]; compound 0.2 µM): -2.5%
- inhibition ([24]; compound 0.02 µM): -2.4%
- inhibition ([24]; compound 0.2 µM): -3.4%
- inhibition ([25]; compound 0.02 µM): -1.3%
- inhibition ([25]; compound 0.2 µM): -1.3%
- inhibition ([26]; compound 0.02 µM): 4.4%
- inhibition ([26]; compound 0.2 µM): 3.9%
- inhibition ([27]; compound 0.02 µM): -5.6%
- inhibition ([27]; compound 0.2 µM): -7.8%
- Ki [28]: 83.5 nM
- inhibition ([28]; compound 0.2 µM): 58.1%
- inhibition ([29]; compound 0.02 µM): -3.4%
- inhibition ([29]; compound 0.2 µM): 0.3%
- inhibition ([30]; compound 0.02 µM): -2.4%
- inhibition ([30]; compound 0.2 µM): -3%
- inhibition ([31]; compound 0.02 µM): 5.3%
- inhibition ([31]; compound 0.2 µM): 8.9%
- inhibition ([32]; compound 0.02 µM): 4.5%
- inhibition ([32]; compound 0.2 µM): 5.3%
- inhibition ([33]; compound 0.02 µM): -2.8%
- inhibition ([33]; compound 0.2 µM): -1.2%
- inhibition ([34]; compound 0.02 µM): 3.1%
- inhibition ([34]; compound 0.2 µM): 3.4%

SMILES: CNC(=O)c1cc(Oc2ccc(NC(=O)Nc3ccc(Cl)c(C(F)(F)F)c3)cc2)ccn1
- inhibition ([1]; compound 0.02 µM): -1.5%
- inhibition ([1]; compound 0.2 µM): 5.4%
- inhibition ([2]; compound 0.02 µM): -6.7%
- inhibition ([2]; compound 0.2 µM): 3.1%
- inhibition ([3]; compound 0.02 µM): -3.5%
- inhibition ([3]; compound 0.2 µM): -3.6%
- inhibition ([4]; compound 0.02 µM): -7%
- inhibition ([4]; compound 0.2 µM): 8.1%
- inhibition ([5]; compound 0.02 µM): -4.6%
- inhibition ([5]; compound 0.2 µM): -2.9%
- inhibition ([6]; compound 0.02 µM): 4.2%
- inhibition ([6]; compound 0.2 µM): 88.7%
- inhibition ([7]; compound 0.02 µM): -2.7%
- inhibition ([7]; compound 0.2 µM): 9.8%
- inhibition ([8]; compound 0.02 µM): -8.9%
- inhibition ([8]; compound 0.2 µM): 2.1%
- inhibition ([9]; compound 0.02 µM): -0.8%
- inhibition ([9]; compound 0.2 µM): 0.9%
- inhibition ([10]; compound 0.02 µM): -10.6%
- inhibition ([10]; compound 0.2 µM): -9.7%
- inhibition ([11]; compound 0.02 µM): -4.7%
- inhibition ([11]; compound 0.2 µM): 5.3%
- inhibition ([12]; compound 0.02 µM): -5%
- inhibition ([12]; compound 0.2 µM): -6.1%
- inhibition ([14]; compound 0.02 µM): -3.8%
- inhibition ([14]; compound 0.2 µM): 3.8%
- inhibition ([15]; compound 0.02 µM): -8%
- inhibition ([15]; compound 0.2 µM): 4.4%
- inhibition ([16]; compound 0.02 µM): -1%
- inhibition ([16]; compound 0.2 µM): 1.7%
- inhibition ([18]; compound 0.02 µM): -3.1%
- inhibition ([18]; compound 0.2 µM): -3.7%
- inhibition ([19]; compound 0.02 µM): -0.2% and -0.6%
- inhibition ([19]; compound 0.2 µM): 22% and 17.2%
- inhibition ([20]; compound 0.02 µM): -1.7%
- inhibition ([20]; compound 0.2 µM): 11.7%
- inhibition ([21]; compound 0.02 µM): 2.1%
- inhibition ([22]; compound 0.02 µM): -1.2%
- inhibition ([22]; compound 0.2 µM): 0%
- inhibition ([23]; compound 0.02 µM): -0.7%
- inhibition ([23]; compound 0.2 µM): -5.1%
- inhibition ([24]; compound 0.02 µM): -4.4%
- inhibition ([24]; compound 0.2 µM): -0.6%
- inhibition ([25]; compound 0.02 µM): -1.1%
- inhibition ([25]; compound 0.2 µM): 6.8%
- inhibition ([26]; compound 0.02 µM): -0.9%
- inhibition ([26]; compound 0.2 µM): 8.4%
- inhibition ([27]; compound 0.02 µM): -3.1%
- inhibition ([27]; compound 0.2 µM): 3.2%
- inhibition ([29]; compound 0.02 µM): -0.5%
- inhibition ([29]; compound 0.2 µM): 7.9%
- inhibition ([30]; compound 0.02 µM): -3.3%
- inhibition ([30]; compound 0.2 µM): -1.9%
- inhibition ([31]; compound 0.02 µM): 4.8%
- inhibition ([31]; compound 0.2 µM): 14.3%
- inhibition ([32]; compound 0.02 µM): -6.3%
- inhibition ([32]; compound 0.2 µM): 9.4%
- inhibition ([33]; compound 0.02 µM): -0.4%
- inhibition ([33]; compound 0.2 µM): 19%
- inhibition ([34]; compound 0.02 µM): -17.2%
- inhibition ([34]; compound 0.2 µM): 19.1%
